From patent US8552161B2, “Saponin compounds, methods of preparation thereof, use thereof and pharmaceutical compositions” (Uniwersytet W Bialymstoku, priority 2009, dated 2013)

What was measured:
[1] = tested on: cervical carcinoma cell line HeLa; experiment: Calcein AM cytotoxicity assay, HeLa; format: cell-based; conditions: 72 h, means ± SD, three independent experiments in triplicate
Protocol: (§1) Stock solutions (10 mmol/l) of the tested compounds were prepared by dissolving relevant quantity of the substance in DMSO. […] Calcein AM was obtained from Molecular Probes (Invitrogen Corporation, CA, USA).
(§2) All cell lines were cultured in DMEM medium (Sigma, Mo., USA). Medium was supplemented with 10% heat-inactivated fetal bovine serum, 2 mmol/l L-glutamine and 1% penicillin-streptomycin. The cell lines were maintained under standard cell culture conditions at 37° C. and 5% CO2 in a humid environment. Cells were subcultured twice or three times a week using the standard trypsinization procedure.
(§3) All cell lines were cultured in DMEM medium (Sigma, Mo., USA) supplemented with 10% fetal calf serum, 2 mM glutamine, 100 U/ml penicillin and 100 μg/ml streptomycin, at 37° C. in a fully humidified atmosphere containing 5% CO2. Suspensions of these lines (ca. 1.0×10^5 cells/ml) were placed in 96-well microtitre plates and after 3 h of stabilization the tested compounds were added in serially diluted concentrations. Saponins were dissolved in dimethylsulfoxide (DMSO) before addition to cultures. Control cultures were treated with DMSO alone. The final concentration of DMSO in the reaction mixtures never exceeded 0.6%. Four-fold dilutions of the intended test concentration were added at time zero in 20 μl aliquots to the microtitre plate wells. Usually, each test compound was evaluated at six 4-fold dilutions and in routine testing; the highest well concentration was 50 μM, although this varied in a few cases, depending on the test compound. After 72 h of culture, the cells were incubated with Calcein AM solution (Molecular Probes) for 1 h. The fluorescence of viable cells was quantified using a Fluoroscan Ascent instrument (Microsystems).

[2] = tested on: T-lymphoblastic leukemia cell line CEM; experiment: Calcein AM cytotoxicity assay, CEM; format: cell-based; conditions: Calcein AM assay, 72 h; means ± SD, three independent experiments in triplicate
Protocol: as §1, §2, §3

[3] = tested on: breast carcinoma cell line MCF7; experiment: Calcein AM cytotoxicity assay, MCF7; format: cell-based, human; conditions: Calcein AM assay, 72 h; means ± SD, three independent experiments in triplicate
Protocol: as §1, §2, §3

[4] = tested on: malignant melanoma cell line G-361; experiment: Calcein AM cytotoxicity assay, G-361; format: cell-based, human; conditions: 72 h, means ± SD, three independent experiments in triplicate
Protocol: as §1, §2, §3

[5] = tested on: normal human fibroblasts BJ; experiment: Calcein AM cytotoxicity assay, normal fibroblasts BJ; format: cell-based; conditions: 72 h, means ± SD, three independent experiments in triplicate
Protocol: as §1, §2, §3

[6] = tested on: lung carcinoma cell line A549; experiment: Calcein AM cytotoxicity assay, A549; format: cell-based, human; conditions: 72 h, means ± SD, three independent experiments in triplicate, read-out: IC50, A 549
Protocol: as §1, §2, §3

[7] = tested on: caspase-3/7 in CEM cells; experiment: Activity of caspases-3/7 in treated CEM cells (Ac-DEVD-AMC substrate); format: cell-based; conditions: for activity of caspases-3/7 compared with untreated control: 24 h, 3 (1; 2.5; 5 μM), 6 (0.1; 0.25; 0.5 μM)
Protocol: The CEM cells treated with the novel compounds were harvested by centrifugations and homogenized in an extraction buffer (10 mM KCl, 5 mM HEPES, 1 mM EDTA, 1 mM EGTA, 0.2% CHAPS, inhibitors of proteases, pH 7.4) on ice for 20 min. The homogenates were clarified by centrifugation at 10,000 g for […] at 4° C., the proteins were quantified by the Bradford method and diluted to the same concentration. Lysates were then incubated for 1 h with […] Ac-DEVD-AMC as a substrate (Sigma-Aldrich) in an assay buffer (25 mM PIPES, 2 mM EGTA, 2 mM MgCl2, 5 mM DTT, pH 7.3). For negative controls, the lysates were supplemented with […] Ac-DEVD-CHO as a caspase-3/7 inhibitor (Sigma-Aldrich). The fluorescence of the product was measured using a Fluoroskan Ascent microplate reader (Labsystems) at 346/442 nm (ex/em). Here, we determined the activity of caspase-3/7 in CEM cells exposed to 3, 6 or 7 using a fluorogenic substrate Ac-DEVD-AMC and/or caspase 3/7 inhibitor […]. Cells were treated in a dose-dependent manner with compounds 3 (1; 2.5; 5 μM), 6 (0.1; 0.25; 0.5 μM) and 7 (5; 7.5; 10 μM).

[8] = tested on: CEM cells; experiment: Flow cytometry cell cycle and apoptosis (subG1) analysis; format: cell-based; conditions: for distribution of CEM cells in cell cycle phases (FIG. 2): increasing concentrations
Protocol: The leukemia cancer CEM cells were trypsinized, seeded in 6 well plates, and immediately incubated with the respective compounds. […] Triton X-100, and 50 μg/ml propidium iodide in PBS. DNA content was assessed with a flow cytometer (Cell Lab Quanta SC—MPL, Beckman Coulter, Calif., USA). In a histogram analysis, distribution of cells into the subG1 (“apoptotic cells”), the G0/G1, S and the G2/M peak was quantified using software MultiCycle AV (Phoenix Flow Systems, CA, USA).

[9] = tested on: leukemia cells (CEM); experiment: Western blot analysis of apoptosis related proteins; format: cell-based; conditions: 24 h
Protocol: The cells were seeded in a density 2.2×10^4 cells/cm^2 using culture medium in 100-mm culture dishes. Immediately the cells were treated by novel saponins: 3 (1; 2.5; 5 μM), 6 (0.1; 0.25; 0.5 μM) and 7 (5; 7.5; 10 μM). DMSO was used as a vehicle for controls. After 24 h treatment, the cells were washed three times with cold PBS (10 mM, pH 7.4) and lysed in ice-cold protein extract RIPA buffer (20 mM Tris-HCl, pH 7.4, 5 mM EDTA, 2 mM EGTA, 100 mM NaCl, 2 mM NaF, 0.2% Nonidet P-40, 30 mM PMSF, 1 mM DTT, […] of aprotinin and leupeptin). The lysate was collected into microfuge tube and incubated on ice for 1 h. It was then cleared by centrifugation at 10,000×g for […] at 4° C., and supernatant was collected, aliquoted, and stored at −80° C. Proteins in lysates were quantified by the Bradford method and then diluted with Laemmli electrophoresis buffer. Proteins were then separated on 10% or 12% SDS-polyacrylamide gels, transferred onto nitrocellulose membranes (Bio-Rad Laboratories, CA, USA) and stained with Ponceau S to check equal protein loading. The membranes were blocked with 5% (w/v) non-fat dry milk and 0.1% Tween-20 in PBS for 2 h and probed with the specific primary antibodies overnight. After washing in PBS and PBS with 0.1% Tween-20, the membranes were probed with horseradish peroxidase-conjugated secondary antibodies and visualized with chemiluminescent detection reagent West Pico Supersignal (Thermo Fisher Scientific, Rockford, USA). To confirm equal protein loading, immunodetection was performed with the anti-α-tubulin monoclonal antibody. The experiments were repeated three times. The protein expressions in treated cells were compared to untreated controls.

Row | Structure (SMILES) | IC50 [1] [nM] | IC50 [2] [nM] | IC50 [3] [nM] | IC50 [4] [nM] | IC50 [5] [nM] | IC50 [6] [nM] | activity of caspases-3/7 compared with untreated control [7] | caspase-3/7 activity after treatment with higher concentrations [7] | subG1 phase of the cell cycle (apoptotic cells) ([8]; CEM cell line after treatment) | distribution of CEM cells in cell cycle phases (FIG. 2) [8] | Apoptosis subG1 ([8]; CEM, 24 h, 0.5 μM) [%] | Cell cycle distribution G0/G1 ([8]; CEM, 24 h, 0.5 μM) [%] | Cell cycle distribution G2/M ([8]; CEM, 24 h, 0.5 μM) [%] | Cell cycle distribution S ([8]; CEM, 24 h, 0.5 μM) [%] | PARP (Western blot) ([9]; dose-dependent (FIG. 5)) | caspase-3 (Western blot) ([9]; dose-dependent (FIG. 5)) | antiapoptotic Bcl-2 protein ([9]; dose-dependent (FIG. 5)) | expression of tumour suppressor protein p53 ([9]; dose-dependent (FIG. 5)) | phosphorylation of pRb S780 ([9]; same concentrations (FIG. 5))
1 | COc1ccc(C(=O)O[C@H]2[C@H](O[C@@H]3[C@@H](OC(C)=O)[C@H](O[C@H]4C[C@H]5[C@@H]6CC=C7C[C@@H](O)CC[C@]7(C)[C@H]6CC[C@]5(C)[C@@]4(O)[C@H](C)COC(=O)c4ccccc4)OC[C@@H]3O)OC[C@@H](O)[C@@H]2O)cc1 [Compound 2, (20R)-21-O-benzoyl-20-methylpregn-5-ene-3β,16β,17α,21-tetraol 16-O-{2-O-(4-methoxybenzoyl)-β-D-xylopyranosyl-(1→3)-2′-O-acetyl-α-L-arabinopyranoside}] | 240 ± 60 | 70 ± 10 | 700 ± 100 | 1660 ± 900 | 100 ± 20 | 170 ± 40 | – | – | – | – | – | – | – | – | – | – | – | – | –
2 | CCCCC(=O)OC[C@@H](C)[C@@]1(O)[C@@H](O[C@@H]2OC[C@H](O)[C@H](O[C@@H]3OC[C@@H](O)[C@H](O)[C@H]3OC(=O)c3ccc(OC)cc3)[C@H]2OC(C)=O)C[C@H]2[C@@H]3CC=C4C[C@@H](O)CC[C@]4(C)[C@H]3CC[C@@]21C [Compound 4, (20R)-21-O-pentanoyl-20-methylpregn-5-ene-3β,16β,17α,21-tetraol 16-O-{2-O-(4-methoxybenzoyl)-β-D-xylopyranosyl-(1→3)-2′-O-acetyl-α-L-arabinopyranoside}] | 170 ± 10 | 60 ± 10 | 500 ± 70 | 390 ± 60 | 500 ± 60 | 160 ± 40 | – | – | – | – | – | – | – | – | – | – | – | – | –
3 | CCCCCCC(=O)OC[C@@H](C)[C@@]1(O)[C@@H](O[C@@H]2OC[C@H](O)[C@H](O[C@@H]3OC[C@@H](O)[C@H](O)[C@H]3OC(=O)c3ccc(OC)cc3)[C@H]2OC(C)=O)C[C@H]2[C@@H]3CC=C4C[C@@H](O)CC[C@]4(C)[C@H]3CC[C@@]21C [Compound 5, (20R)-21-O-Heptanoyl-20-methylpregn-5-ene-3β,16β,17α,21-tetraol 16-O-{2-O-(4-methoxybenzoyl)-β-D-xylopyranosyl-(1-3)-2′-O-acetyl-α-L-arabinopyranoside}] | 30 ± 2 | 10 ± 2 | 400 ± 40 | 1280 ± 200 | 600 ± 70 | 20 ± 5 | – | – | – | – | – | – | – | – | – | – | – | – | –
4 | COc1ccc(C(=O)OCC(C)C2(O)C(OC3OCC(O)C(OC4OCC(O)C(O)C4OC(=O)c4ccc(OC)cc4)C3OC(C)=O)CC3C4CC=C5CC(O)CCC5(C)C4CCC32C)cc1 [Compound 3, (20R)-21-O-(4-methoxybenzoyl)-20-methylopregn-5-ene-3β,16β,17α,21-tetraol 16-O-{2-O-(4-methoxybenzoyl)-β-D-xylopyranosyl-(1→3)-2′-O-acetyl-α-L-arabinopyranoside] | – | – | – | – | – | – | twofold enhancement | caspase-3/7 activity decreased | increase in subG1 phase | increased the number of S-phase and G2/M cells with concomitant decrease of G0/G1 cells in dose-dependent manner | 11 | 17 | 26 | 46 | cleavage of PARP | accumulation of caspase-3 | – | – | –
5 | COc1ccc(C(=O)O[C@H]2[C@H](O[C@@H]3[C@@H](OC(C)=O)[C@H](O[C@H]4C[C@H]5[C@@H]6CC=C7C[C@@H](O)CC[C@]7(C)[C@H]6CC[C@]5(C)[C@@]4(O)[C@H](C)COCc4ccccc4)OC[C@@H]3O)OC[C@@H](O)[C@@H]2O)cc1 [Compound 1, (20R)-21-Benzyloxy-20-methylpregn-5-ene-3β,16β,17α-triol 16-O-{2-O-(4-methoxybenzoyl)-β-D-xylopyranosyl-(1→3)-2′-O-acetyl-α-L-arabinopyranoside}] | 200 ± 10 | 20 ± 1 | 600 ± 100 | 750 ± 80 | 300 ± 40 | 100 ± 50 | – | – | – | – | – | – | – | – | – | – | – | – | –
6 | C=CCCCCCCCCC(=O)OC[C@@H](C)[C@@]1(O)[C@@H](O[C@@H]2OC[C@H](O)[C@H](O[C@@H]3OC[C@@H](O)[C@H](O)[C@H]3OC(=O)c3ccc(OC)cc3)[C@H]2OC(C)=O)C[C@H]2[C@@H]3CC=C4C[C@@H](O)CC[C@]4(C)[C@H]3CC[C@@]21C [Compound 6, (20R)-21-O-(Undec-10-enoyl)-20-methylpregn-5-ene-3β,16β,17α,21-tetraol 16-O-{2-O-(4-methoxybenzoyl)-β-D-xylopyranosyl-(1→3)-O-acetyl-α-L-arabinopyranoside}] | – | – | – | – | – | – | twofold enhancement | caspase-3/7 activity decreased | – | increased the number of S-phase and G2/M cells with concomitant decrease of G0/G1 cells in dose-dependent manner | – | – | – | – | cleavage of PARP | accumulation of caspase-3 | increased | enhanced expression | increase of phosphorylation of pRb S780
